Laboratory results taken from patent US7371763B2, “Inhibition of raf kinase using quinolyl, isoquinolyl or pyridyl ureas” (Bayer Pharmaceuticals Corporation, priority 2001, dated 2008).

- melting point: 198 to 199 °C
Structure (SMILES): CC(C)(C)c1ccnc(NC(=O)Nc2ccc(Oc3ccc(Cl)cc3)cc2)c1 [Entry 8, N-(4-tert-Butylpyridyl)-N′-(4-(4-chlorophenoxy)phenyl) urea]
